Data taken from ChEMBL document CHEMBL4145553, “Design, synthesis, and biological evaluation of novel amide and hydrazide based thioether analogs targeting Histone deacteylase (HDAC) enzymes” (Eur J Med Chem, 2018).

How the values were obtained:
Type in all cases: functional
M14 = experiment: Growth inhibition of human M14 cells assessed as cell growth at 10^-7 M incubated for 48 hrs by sulforhodamine B assay relative to control; details: M14, 48 h, read-out: Activity
MDA-MB-435 [1] = experiment: Induction of apoptosis in human MDA-MB-435 cells assessed as live cells by propidium iodide/Annexin V staining based flow cytometry (reference value: 97.4%)
SF-539 = experiment: Growth inhibition of human SF539 cells incubated for 48 hrs by sulforhodamine B assay; details: SF-539, 48 h
NCI-H226 = experiment: Growth inhibition of human NCI-H226 cells incubated for 48 hrs by sulforhodamine B assay; details: NCI-H226, 48 h
SW-620 = experiment: Growth inhibition of human SW620 cells assessed as cell growth at 10^-6 M incubated for 48 hrs by sulforhodamine B assay relative to control; details: SW-620, 48 h, read-out: Activity
SN12C = experiment: Growth inhibition of human SN12C cells assessed as cell growth at 10^-6 M incubated for 48 hrs by sulforhodamine B assay relative to control; details: read-out: Activity
MDA-MB-231 = experiment: Growth inhibition of human MDA-MB-231 cells assessed as cell growth at 10^-8 M incubated for 48 hrs by sulforhodamine B assay relative to control; details: MDA-MB-231, 48 h, read-out: Activity
CAKI-1 = experiment: Growth inhibition of human Caki1 cells assessed as cell growth at 10^-7 M incubated for 48 hrs by sulforhodamine B assay relative to control; details: CAKI-1, 48 h, read-out: Activity
SK-MEL-2 = experiment: Growth inhibition of human SK-MEL-2 cells incubated for 48 hrs by sulforhodamine B assay; details: SK-MEL-2, 48 h
IGROV-1 = experiment: Growth inhibition of human IGROV1 cells assessed as cell growth at 10^-6 M incubated for 48 hrs by sulforhodamine B assay relative to control; details: IGROV-1, 48 h, read-out: Activity
HCT-15 = experiment: Growth inhibition of human HCT15 cells assessed as cell growth at 10^-8 M incubated for 48 hrs by sulforhodamine B assay relative to control; details: HCT-15, 48 h, read-out: Activity
ACHN [2] = experiment: Growth inhibition of human ACHN cells assessed as cell growth at 10^-4 M incubated for 48 hrs by sulforhodamine B assay relative to control; details: read-out: Activity
MDA-MB-435 [3] = experiment: Growth inhibition of human MDA-MB-435 cells assessed as cell growth at 10^-5 M incubated for 48 hrs by sulforhodamine B assay relative to control; details: MDA-MB-435, 48 h, read-out: Activity
SR [4] = experiment: Growth inhibition of human SR cells assessed as cell growth at 10^-4 M incubated for 48 hrs by sulforhodamine B assay relative to control; details: read-out: Activity
UACC-62 = experiment: Growth inhibition of human UACC62 cells assessed as cell growth at 10^-6 M incubated for 48 hrs by sulforhodamine B assay relative to control; details: UACC-62, 48 h, read-out: Activity
SNB-75 = experiment: Growth inhibition of human SNB75 cells assessed as cell growth at 10^-8 M incubated for 48 hrs by sulforhodamine B assay relative to control; details: SNB-75, 48 h, read-out: Activity
786-0 = experiment: Growth inhibition of human 786-0 cells assessed as cell growth at 10^-5 M incubated for 48 hrs by sulforhodamine B assay relative to control; details: 786-0, 48 h, read-out: Activity
HT-29 = experiment: Growth inhibition of human HT-29 cells assessed as cell growth at 10^-5 M incubated for 48 hrs by sulforhodamine B assay relative to control; details: HT-29, 48 h, read-out: Activity
SK-OV-3 = experiment: Growth inhibition of human SKOV3 cells assessed as cell growth at 10^-7 M incubated for 48 hrs by sulforhodamine B assay relative to control; details: SK-OV-3, 48 h, read-out: Activity
A498 = experiment: Growth inhibition of human A498 cells assessed as cell growth at 10^-5 M incubated for 48 hrs by sulforhodamine B assay relative to control; details: A498, 48 h, read-out: Activity
SK-MEL-5 [5] = experiment: Growth inhibition of human SK-MEL-5 cells assessed as cell growth at 10^-8 M incubated for 48 hrs by sulforhodamine B assay relative to control; details: SK-MEL-5, 48 h, read-out: Activity
U-251 = experiment: Growth inhibition of human U251 cells assessed as cell growth at 10^-6 M incubated for 48 hrs by sulforhodamine B assay relative to control; details: U-251, 48 h, read-out: Activity
NCI-H23 = experiment: Growth inhibition of human NCI-H23 cells assessed as cell growth at 10^-6 M incubated for 48 hrs by sulforhodamine B assay relative to control; details: NCI-H23, 48 h, read-out: Activity
OVCAR-8 = experiment: Growth inhibition of human OVCAR8 cells assessed as cell growth at 10^-8 M incubated for 48 hrs by sulforhodamine B assay relative to control; details: OVCAR-8, 48 h, read-out: Activity
SK-MEL-5 [6] = experiment: Growth inhibition of human SK-MEL-5 cells assessed as cell growth at 10^-6 M incubated for 48 hrs by sulforhodamine B assay relative to control; details: SK-MEL-5, 48 h, read-out: Activity
ACHN [7] = experiment: Growth inhibition of human ACHN cells assessed as cell growth at 10^-7 M incubated for 48 hrs by sulforhodamine B assay relative to control; details: read-out: Activity
COLO 205 = experiment: Growth inhibition of human COLO205 cells assessed as cell growth at 10^-7 M incubated for 48 hrs by sulforhodamine B assay relative to control; details: COLO 205, 48 h, read-out: Activity
SK-MEL-28 = experiment: Growth inhibition of human SK-MEL-28 cells assessed as cell growth at 10^-6 M incubated for 48 hrs by sulforhodamine B assay relative to control; details: SK-MEL-28, 48 h, read-out: Activity
LOX IMVI = experiment: Growth inhibition of human LOXIMVI cells assessed as cell growth at 10^-8 M incubated for 48 hrs by sulforhodamine B assay relative to control; details: read-out: Activity
NCI-H460 = experiment: Growth inhibition of human NCI-H460 cells assessed as cell growth at 10^-6 M incubated for 48 hrs by sulforhodamine B assay relative to control; details: NCI-H460, 48 h, read-out: Activity
SR [8] = experiment: Growth inhibition of human SR cells assessed as cell growth at 10^-8 M incubated for 48 hrs by sulforhodamine B assay relative to control; details: read-out: Activity
[9] = read-out: LC50 (the source's name)
[10] = read-out: pLC50 (the source's name) (converted)

CCS/C(Nc1ccccc1)=C(\C#N)C(=O)Nc1ccc(OC)cc1
growth at 0.1 µM (M14): 93%
Activity (MDA-MB-435 [1]): 85.55%
GI50 (SF-539; read-out: GI50): 1.96 µM
CC50 (SF-539; [9]): 52.9 µM
TGI (SF-539; read-out: TGI): 4.81 µM
GI50 (SF-539; read-out: pGI50 (converted)): 1.95 µM
CC50 (SF-539; [10]): 52.5 µM
TGI (SF-539; read-out: pTGI (converted)): 4.79 µM
GI50 (NCI-H226; read-out: GI50): 5.45 µM
CC50 (NCI-H226; [9]): > 100 µM
TGI (NCI-H226; read-out: TGI): 50.7 µM
GI50 (NCI-H226; read-out: pGI50 (converted)): 5.5 µM
CC50 (NCI-H226; [10]): > 100 µM
TGI (NCI-H226; read-out: pTGI (converted)): 50.1 µM
growth at 1 µM (SW-620): 70%
growth at 1 µM (SN12C): 96%
growth at 0.01 µM (MDA-MB-231): 104%
growth at 0.1 µM (CAKI-1): 85%
GI50 (SK-MEL-2; read-out: GI50): 3.01 µM
CC50 (SK-MEL-2; [9]): > 100 µM
TGI (SK-MEL-2; read-out: TGI): > 100 µM
GI50 (SK-MEL-2; read-out: pGI50 (converted)): 3.02 µM
CC50 (SK-MEL-2; [10]): > 100 µM
TGI (SK-MEL-2; read-out: pTGI): > 100 µM
growth at 1 µM (IGROV-1): 79%
growth at 0.01 µM (HCT-15): 98%
growth at 100 µM (ACHN [2]): 17%
growth at 10 µM (MDA-MB-435 [3]): -49%
growth at 100 µM (SR [4]): 16%
growth at 1 µM (UACC-62): 71%
growth at 0.01 µM (SNB-75): 94%
growth at 10 µM (786-0): 30%
growth at 10 µM (HT-29): 8%
growth at 0.1 µM (SK-OV-3): 88%
growth at 10 µM (A498): 9%
growth at 0.01 µM (SK-MEL-5 [5]): 98%
growth at 1 µM (U-251): 94%
growth at 1 µM (NCI-H23): 85%
growth at 0.01 µM (OVCAR-8): 100%
growth at 1 µM (SK-MEL-5 [6]): 80%
growth at 0.1 µM (ACHN [7]): 93%
growth at 0.1 µM (COLO 205): 97%
growth at 1 µM (SK-MEL-28): 85%
growth at 0.01 µM (LOX IMVI): 100%
growth at 1 µM (NCI-H460): 90%
growth at 0.01 µM (SR [8]): 98%

CCS/C(Nc1ccccc1)=C(\C#N)C(=O)N/N=C\c1ccc(Cl)cc1Cl
growth at 0.1 µM (M14): 93%
Activity (MDA-MB-435 [1]): 91.29%
GI50 (SF-539; read-out: GI50): 2.89 µM
CC50 (SF-539; [9]): > 100 µM
TGI (SF-539; read-out: TGI): 20.6 µM
GI50 (SF-539; read-out: pGI50 (converted)): 2.88 µM
CC50 (SF-539; [10]): > 100 µM
TGI (SF-539; read-out: pTGI (converted)): 20.4 µM
GI50 (NCI-H226; read-out: GI50): 4 µM
CC50 (NCI-H226; [9]): > 100 µM
TGI (NCI-H226; read-out: TGI): > 100 µM
GI50 (NCI-H226; read-out: pGI50 (converted)): 3.98 µM
CC50 (NCI-H226; [10]): > 100 µM
TGI (NCI-H226; read-out: pTGI (converted)): > 100 µM
growth at 1 µM (SW-620): 88%
growth at 1 µM (SN12C): 96%
growth at 0.01 µM (MDA-MB-231): 101%
growth at 0.1 µM (CAKI-1): 84%
GI50 (SK-MEL-2; read-out: GI50): 3.24 µM
CC50 (SK-MEL-2; [9]): > 100 µM
TGI (SK-MEL-2; read-out: TGI): 43.6 µM
GI50 (SK-MEL-2; read-out: pGI50 (converted)): 3.24 µM
CC50 (SK-MEL-2; [10]): > 100 µM
TGI (SK-MEL-2; read-out: pTGI): 43.7 µM
growth at 1 µM (IGROV-1): 84%
growth at 0.01 µM (HCT-15): 99%
growth at 100 µM (ACHN [2]): 29%
growth at 10 µM (MDA-MB-435 [3]): -53%
growth at 100 µM (SR [4]): 7%
growth at 1 µM (UACC-62): 69%
growth at 0.01 µM (SNB-75): 88%
growth at 10 µM (786-0): 23%
growth at 10 µM (HT-29): 11%
growth at 0.1 µM (SK-OV-3): 86%
growth at 10 µM (A498): 3%
growth at 0.01 µM (SK-MEL-5 [5]): 101%
growth at 1 µM (U-251): 94%
growth at 1 µM (NCI-H23): 90%
growth at 0.01 µM (OVCAR-8): 94%
growth at 1 µM (SK-MEL-5 [6]): 81%
growth at 0.1 µM (ACHN [7]): 98%
growth at 0.1 µM (COLO 205): 97%
growth at 1 µM (SK-MEL-28): 79%
growth at 0.01 µM (LOX IMVI): 95%
growth at 1 µM (NCI-H460): 91%
growth at 0.01 µM (SR [8]): 91%
